Patent US7238469B2, “Carbon monoxide improves outcomes in tissue and organ transplants and suppresses apoptosis” (priority 2001, dated 2007)

Columns and labels:
VASP = VASP phosphorylation by Western blot in ECs; format: cell-based
Experimental: Cell extracts were prepared, electrophoresed under denaturing conditions (10–12.5% polyacrylamide gels), and transferred into polyvinyldifluoridine membranes (Immobilon P™; Millipore). HO-1 was detected using a rabbit anti-human HO-1 polyclonal antibody (StressGen Biotechnologies). Vasodilatator-stimulated phosphoprotein (VASP) was detected using a rabbit anti-human VASP polyclonal antibody (Calbiochem-Novabiochem). […] Primary antibodies were detected using horseradish peroxidase-conjugated donkey anti-rabbit or goat anti-mouse IgG secondary antibodies (Pierce Chemical Co.). Peroxidase was visualized using the enhanced chemiluminescence assay (Amersham Pharmacia Biotech) according to the manufacturer's instructions, and stored in the form of photoradiographs (Biomax™ MS; Eastman Kodak Co.). […] The amount of phosphorylated ERK, JNK, and p38 MAPK was quantified using ImageQuant® software (Molecular Dynamics). […] Phosphorylated ERK, JNK, and p38 MAPK were normalized to the total amount of total ERK, JNK, and p38 MAPK detected in the same membrane.
Most biological functions attributed to CO have been linked to its ability to bind guanylcyclase and increase the generation of cGMP. […] (B) Activation of guanylcyclase was monitored in BAECs by analyzing the phosphorylation of VASP. […] (D) Phosphorylation of VASP was analyzed by Western blot as described above in B. N.T., nontreated. […]

[1] = test system: mouse hearts transplanted into rats; assay: Mouse-to-rat heterotopic cardiac transplant, graft survival; format: in vivo, BALB/c mouse hearts, Lewis rats; conditions: for graft outcome: mouse hearts into rats, FePPIX with CVF plus CsA, CO 400 ppm in SnPPIX-treated rats
Text: BALB/c mouse hearts were used as donor organs for transplantation into inbred adult male Lewis rats (Harlan Sprague-Dawley, Indianapolis, Ind.). Animals were housed in accordance with guidelines from the American Association for Laboratory Animal Care, and research protocols were approved by the Institutional Animal Care and Use Committees of the Beth Israel Deaconess Medical Center.
Animals were anesthetized by a combination of methoxyflurane (Pitman-Moore, Mundelain, Ill.) inhalation and pentobarbital (Abbott, North Chicago, Ill.) at a dose of 30–50 mg/kg i.p. during all procedures. Heterotopic cardiac transplants were performed as described previously (Berk et al., Physiol Rev. 8:999–1030, 2001; Petkova et al., J Biol. Chem. 276:7932–7936, 2001). Graft survival was assessed daily by palpation. Rejection was diagnosed by cessation of ventricular contractions and confirmed by histologic examination.
Cobra venom factor (CVF; which blocks complement activation) (Quidel, San Diego, Calif.) was administered i.p. on day −1 (60 U/kg) and on day 0 (20 U/kg) with respect to the day of transplantation (day 0). Cyclosporin A (CsA; Novartis, Basel, Switzerland), which blocks T cell activation, was administered i.m. (15 mg/kg) starting at day 0 and daily thereafter until the end of each experiment. Tin protoporphyrin (SnPPIX), cobalt protoporphyrin (CoP-PIX), and iron protoporphyrin (FePPIX; Porphyrin Products, Logan, Utah) were diluted in 100 mM NaOH to a stock solution of 50 mM and kept at −70° C. until used. Light exposure was limited as much as possible. Both SnPPIX and FePPIX were administered i.p. (30 μM/kg) in PBS. FePPIX and SnPPIX were administered to the donor at days −2 and −1 (30 μM/kg) and to the recipient at the time of transplantation (day 0) and daily thereafter (30 μM/kg).
Briefly, CO at a concentration of 1% (10,000 parts per million; ppm) in compressed air was mixed with balanced air (21% oxygen) in a stainless steel mixing cylinder before entering the exposure chamber. CO concentrations were controlled by varying the flow rates of CO in a mixing cylinder before delivery to the chamber. Because the flow rate is primarily determined by the O2 flow, only the CO flow was changed to deliver the final concentration to the exposure chamber. A CO analyzer (Interscan Corporation, Chatsworth, Calif.) was used to measure CO levels continuously in the chamber. Graft donors were placed in the CO exposure chamber 2 days before transplantation. Graft recipients were placed in the exposure chamber immediately following transplantation and were kept in the exposure chamber for 14 (n=3) or 16 (n=3) days. CO concentration was maintained between 250 and 400 ppm at all times. Animals were removed daily from the chamber to assess graft survival and to administer CsA, SnPPIX, or FePPIX, as described above.

Row | Structure (SMILES) | VASP phosphorylation (VASP) | graft outcome [1] | further results
1 | Nc1nc2c(nc(Br)n2[C@@H]2O[C@@H]3COP(=O)(O)O[C@H]3[C@H]2O)c(=O)[nH]1 [8-Br-cGMP, 8-bromoguanosine-3′-5′-cyclic-monophosphate] | induce VASP phosphorylation | – | –
2 | [C-]#[O+] [CO, carbon monoxide] | – | survived long term | dose of CO used as fraction of the lethal dose ([1]; 400–500 ppm): approximately one-twentieth; untoward reactions ([1]; rats and mice exposed to CO): did not exhibit untoward reactions; time grafts continued to function ([1]; rats treated with SnPPIX, CO 400 ppm discontinued 14 or 16 days after transplantation): > 50 days
3 | C=CC1=C(C)c2cc3[n-]c(cc4[n-]c(cc5nc(cc1n2)C(C)=C5C=C)c(C)c4CCC(=O)O)c(CCC(=O)O)c3C.[Fe+2] [FePPIX, iron protoporphyrin] | – | did not lead to graft rejection | –
4 | O=c1onc2cnc3ccccc3n12 [ODQ, 1H[1,2,4]oxadiazolo[4,3-α]quinoxalin-1] | prevent constitutive VASP phosphorylation | – | –
5 | C=Cc1c2[n-]c(c1C)/C=c1\[n-]/c(c(C)c1C=C)=C\c1[n-]c(c(CCC(=O)O)c1C)C=c1[n-]/c(c(C)c1CCC(=O)O)=C\2.[Sn+4] [SnPPIX, tin protoporphyrin IX] | – | – | time to graft rejection after transplantation ([1]; SnPPIX to donor and recipient, despite CVF plus CsA): 3 to 7 days
